Test [1] deals with Plasmodium falciparum chloroquine-resistant strain (FAF6, derived from ITG2 strain). Nature of the test: Growth inhibition of chloroquine-resistant malaria parasite (parasite lactate dehydrogenase viability). It is filed as cell-based. The source says:
Compounds IA and IB (also referred to herein as calothrixins A and B respectively) were isolated from Calothrix strains (Schlegel et al, J. Appl, Phycol. 10, 471-479 (1998)), extracts of which were screened for activity against HeLa cells and Plasmodium as described in the Examples.
A chloroquine-resistant strain (FAF6, derived from ITG2 strain (Biggs, B. A., Gooze, L., Wycherley, K., Wollish, W., Southwell, B., Leech, J. H., and Brown, G. V (1991). Proc. Natl. Acad. Sci. USA 88, 9171-9174, 1991) of the malaria parasite. Plasmodium falciparum was used. Parasites were cultured in standard media (Trager, W. and Jensen, J. B. (1976). Science 193 673-675) with modifications (Cranmer, S. L., Magowan, C., Lian, J., Coppel, R. L., and Cooke, B. M. (1997). Trans. Roy. Soc. Trop. Med. Hyg. 91, 363-365). At the start of the assay the parasitaemia was 2% and haematocrit was 2%. Parasites were incubated in the presence of inhibitors in 96-well plates for 48 h.
Parasite-derived lactate dehydrogenase activity at the end of the 48 h period was used as a measure of parasite viability in vitro (Makler, M. T., Ries, J. M., Williams, J. A., Bancroft, J. E., Piper, R. C., Gibbins, B. L., and Hinrichs, D. J. (1993). Am. J. Trop. Med. Hyg. 48, 739-741).
The results are illustrated in FIG. 1.

Test [2] relates to HeLa cells. Nature of the test: HeLa cell cytotoxicity, MTT assay. The conditions noted are these: cultured HeLa cells, 4 days continuous incubation, ± s.d., listed as IB (Calothrixin B). It is filed as cell-based. The protocol: The compounds of Formula IA and IB were also examined for their efficacy in inhibiting the growth of cultured HeLa cells (FIG. 2). The IC50 values are depicted in Table 2.
Exponentially growing HeLa cells were trysinized, centrifuged and resuspended in fresh medium. (RPMI 1640, 20% FCS, 2 mM glutamine). […] Calothrix cell extracts or the purified active compound were prepared in dimethyl sulphoxide, serially diluted in complete medium, then added (100 μL) in quadruplicate to cell suspensions. Cells were incubated continuously with extracts at 37° C. for 4 days. Cytotoxicity was determined using the MTT [3-(4,5dimethylthiazol-2-yl)-2,5-diphenyl-tetrazolium bromide] assay. MTT (50 μL, 2 mg ML^−1) was aliquotted into all wells of the microtitre plate and incubated at 37° C. for 4 h. Plates were inverted to discard medium and formazan crystals were solubilized in 100 μL DMSO with 25 μL glycine buffer (0.1 M glycine in 0.1 M NaCl, pH 10.5). Plates were agitated for 30 s and absorbances determined immediately at […] using a Titertek Multiskan Plus MKII ELISA plate reader.
The results are illustrated in FIG. 2.
For orientation: Tetrazolium assays rely on reduction of a dye to a coloured formazan, in cell work by metabolically active cells.

Where two headings read alike, the source gives them in different places.

In the case of `CCN(CC)CCCC(C)Nc1ccnc2cc(Cl)ccc12` (stereo not drawn) [Chloroquine, reference compound], the midpoint of inhibition in test [1] (Plasmodium falciparum, 48 h), the IC50, lay at 180 ± 44 nM.

Regarding `O=C1c2[nH]c3ccccc3c2C(=O)c2cnc3ccccc3c21` [IB, Calothrixin B], the IC50 (usually the midpoint of a concentration-inhibition curve) in test [2] is 350 ± 82 nM; in test [1] (chloroquine-resistant P. falciparum strain FAF6, 48 h incubation, parasite lactate dehydrogenase activity, ± s.d., listed as IB (Calothrixin B), read-out: IC50) it was 83 ± 17 nM.

The record behind these values is US6632822B1, “Compounds and therapeutic methods” (The Australian National University, priority 1999, dated 2003).
